This passage reports IC50 results from patent US10131669B2, “Pyrazolopyrimidine compounds” (Pfizer Inc., priority 2014, dated 2018).

The structures appear in SMILES notation.

Holding throughout (format): biochemical
Assay [1] concerns the target T1, Human PDE4A3 (Homo sapiens, UniProt P27815).
T1 construct: His6 (N); FLAG (C); made in house; host or cells: insect cells (baculovirus, pFastBac)
Kind of assay: PDE4A3 Scintillation Proximity Assay (SPA), inhibition of enzyme activity. As to conditions: geometric mean of 2-7 determinations unless otherwise indicated (b: ≥8 determinations; c: single determination), 1 μM cAMP, 30 min at 25° C., read-out: Human PDE4A FL. The method, boiled down:
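Human PDE4A3 (aa 2–825, His6/FLAG-tagged, insect-cell expressed) at 80 pM hydrolyses 1 μM cAMP including 20 nM 3H-cAMP, ~20% conversion. Buffer is 50 mM Tris pH 7.5, 1.3 mM MgCl2, 0.01% Brij. Incubated 30 min at 25 °C with inhibitor range, stopped with yttrium silicate SPA beads, read after 8 h settling.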
A general note: Scintillation proximity formats need no separation of bound from free tracer.

Assay [2] has as its target T2, Human PDE4B1 (Homo sapiens, UniProt Q07343, S133E/S654A/S659A/S661A).
T2 construct: His6 (N); thrombin cleavage site (N); made in house; host or cells: insect cells (baculovirus, pFastBac)
Briefly: PDE4B1 Scintillation Proximity Assay (SPA), inhibition of enzyme activity. As to conditions: geometric mean of 2-7 determinations unless otherwise indicated (b: ≥8 determinations; c: single determination); 1 μM cAMP, 30 min at 25° C.; read-out: Human PDE4B FL; IC50. The method, boiled down:
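His-tagged human PDE4B1 expressed in insect cells and purified by Ni-NTA and Source 15Q was assayed in 50 mM Tris pH 7.5, 1.3 mM MgCl2, 0.01% Brij. The substrate was 1 μM cAMP with ³H-cAMP tracer, at about 20% conversion, for 30 min at 25 °C. Yttrium silicate SPA beads stopped the reaction; counts were read after 8 h settling.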

Assay [3] deals with T3, Human PDE4C1 (Homo sapiens, UniProt Q08493).
T3 construct: His6 (N); FLAG (C); made in house; host or cells: insect cells (baculovirus, pFastBac)
Kind of assay: PDE4C1 Scintillation Proximity Assay (SPA), inhibition of enzyme activity. The conditions noted are these: geometric mean of 2-7 determinations unless otherwise indicated (b: ≥8 determinations; c: single determination), 1 μM cAMP, 30 min at 25° C., read-out: Human PDE4C FL. The method, boiled down: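 Human recombinant FLAG/His-purified PDE4C1 from insect cells at 40 pM, with 1 μM cAMP (3H-cAMP tracer) in Tris pH 7.5, 1.3 mM MgCl2, 0.01% Brij, ~20% substrate turnover. Incubation 30 min at 25° C with a range of inhibitor concentrations. Stopped with yttrium silicate SPA beads and read by scintillation after 8 h settling.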

The target of assay [4] is T4, human PDE4D3 (Homo sapiens, UniProt Q08499).
T4 construct: His6 (C); made in house; host or cells: insect cells (baculovirus, pFastBac)
Kind of assay: PDE4D3 Scintillation Proximity Assay (SPA), inhibition of enzyme activity. As to conditions: geometric mean of 2-7 determinations unless otherwise indicated (b: ≥8 determinations; c: single determination); 1 μM cAMP, 30 min at 25° C.; read-out: Human PDE4D FL; IC50. The procedure, abridged:
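Recombinant enzyme from insect cells, Ni-NTA and Q Sepharose purified, used at 10 pM in 50 mM Tris pH 7.5, 1.3 mM MgCl2, 0.01% Brij. Substrate 1 μM cAMP with 3H-cAMP tracer, ~20% conversion, inhibitor range, 30 min at 25°C. Stopped with yttrium silicate SPA beads and scintillation read.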

T2 sequence (Q07343 122-736 S133E/S654A/S659A/S661A): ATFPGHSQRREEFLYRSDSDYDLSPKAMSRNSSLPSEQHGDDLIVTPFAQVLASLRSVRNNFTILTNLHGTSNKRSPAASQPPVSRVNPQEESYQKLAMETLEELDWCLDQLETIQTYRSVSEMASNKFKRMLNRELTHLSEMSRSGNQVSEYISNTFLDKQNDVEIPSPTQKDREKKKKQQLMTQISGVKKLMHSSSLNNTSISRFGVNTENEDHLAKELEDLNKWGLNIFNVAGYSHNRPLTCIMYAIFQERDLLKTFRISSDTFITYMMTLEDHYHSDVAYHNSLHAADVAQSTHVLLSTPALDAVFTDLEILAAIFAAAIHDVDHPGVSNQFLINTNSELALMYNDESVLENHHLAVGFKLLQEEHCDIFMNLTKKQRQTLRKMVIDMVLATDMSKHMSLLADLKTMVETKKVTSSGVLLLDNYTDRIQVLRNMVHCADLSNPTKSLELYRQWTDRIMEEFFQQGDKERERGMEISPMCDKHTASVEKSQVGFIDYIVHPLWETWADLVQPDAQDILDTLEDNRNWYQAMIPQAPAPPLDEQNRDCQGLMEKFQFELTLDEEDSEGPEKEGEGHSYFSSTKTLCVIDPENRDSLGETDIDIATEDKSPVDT
T4 sequence (Q08499 186-808): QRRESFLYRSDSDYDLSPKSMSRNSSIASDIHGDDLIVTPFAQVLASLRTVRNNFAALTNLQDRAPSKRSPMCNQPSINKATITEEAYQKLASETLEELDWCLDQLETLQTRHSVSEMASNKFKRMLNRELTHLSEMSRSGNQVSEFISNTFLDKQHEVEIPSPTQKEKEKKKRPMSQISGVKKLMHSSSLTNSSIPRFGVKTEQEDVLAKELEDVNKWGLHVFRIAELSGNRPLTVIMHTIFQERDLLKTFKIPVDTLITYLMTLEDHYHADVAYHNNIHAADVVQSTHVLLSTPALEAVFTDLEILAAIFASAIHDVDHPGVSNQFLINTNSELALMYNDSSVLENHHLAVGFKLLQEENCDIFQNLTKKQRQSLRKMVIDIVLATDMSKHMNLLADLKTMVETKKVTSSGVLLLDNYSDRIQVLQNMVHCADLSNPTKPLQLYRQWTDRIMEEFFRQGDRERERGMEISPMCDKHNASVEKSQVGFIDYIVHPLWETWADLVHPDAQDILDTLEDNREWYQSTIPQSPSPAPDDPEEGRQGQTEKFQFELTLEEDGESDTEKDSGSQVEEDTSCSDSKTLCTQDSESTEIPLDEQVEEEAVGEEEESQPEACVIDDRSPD
T3 sequence (Q08493 2-712): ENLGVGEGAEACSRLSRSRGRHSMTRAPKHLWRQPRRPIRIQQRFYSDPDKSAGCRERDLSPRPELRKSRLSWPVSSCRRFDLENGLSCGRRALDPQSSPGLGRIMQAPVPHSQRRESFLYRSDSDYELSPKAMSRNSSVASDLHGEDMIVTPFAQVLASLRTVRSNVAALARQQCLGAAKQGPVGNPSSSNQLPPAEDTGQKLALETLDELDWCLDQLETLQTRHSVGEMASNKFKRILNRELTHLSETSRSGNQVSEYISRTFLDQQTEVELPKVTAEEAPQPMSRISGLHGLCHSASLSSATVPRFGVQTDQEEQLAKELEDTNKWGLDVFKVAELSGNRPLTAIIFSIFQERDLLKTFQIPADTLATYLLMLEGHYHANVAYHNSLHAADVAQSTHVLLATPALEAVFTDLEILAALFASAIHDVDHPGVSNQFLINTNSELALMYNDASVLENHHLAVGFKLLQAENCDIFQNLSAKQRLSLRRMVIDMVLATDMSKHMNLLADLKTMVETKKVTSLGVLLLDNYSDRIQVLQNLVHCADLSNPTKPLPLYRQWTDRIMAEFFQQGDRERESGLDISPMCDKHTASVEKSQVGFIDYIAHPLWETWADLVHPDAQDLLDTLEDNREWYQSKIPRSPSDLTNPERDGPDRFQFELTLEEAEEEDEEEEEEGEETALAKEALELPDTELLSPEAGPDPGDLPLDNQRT
T1 sequence (P27815 2-825 isoform P27815-6): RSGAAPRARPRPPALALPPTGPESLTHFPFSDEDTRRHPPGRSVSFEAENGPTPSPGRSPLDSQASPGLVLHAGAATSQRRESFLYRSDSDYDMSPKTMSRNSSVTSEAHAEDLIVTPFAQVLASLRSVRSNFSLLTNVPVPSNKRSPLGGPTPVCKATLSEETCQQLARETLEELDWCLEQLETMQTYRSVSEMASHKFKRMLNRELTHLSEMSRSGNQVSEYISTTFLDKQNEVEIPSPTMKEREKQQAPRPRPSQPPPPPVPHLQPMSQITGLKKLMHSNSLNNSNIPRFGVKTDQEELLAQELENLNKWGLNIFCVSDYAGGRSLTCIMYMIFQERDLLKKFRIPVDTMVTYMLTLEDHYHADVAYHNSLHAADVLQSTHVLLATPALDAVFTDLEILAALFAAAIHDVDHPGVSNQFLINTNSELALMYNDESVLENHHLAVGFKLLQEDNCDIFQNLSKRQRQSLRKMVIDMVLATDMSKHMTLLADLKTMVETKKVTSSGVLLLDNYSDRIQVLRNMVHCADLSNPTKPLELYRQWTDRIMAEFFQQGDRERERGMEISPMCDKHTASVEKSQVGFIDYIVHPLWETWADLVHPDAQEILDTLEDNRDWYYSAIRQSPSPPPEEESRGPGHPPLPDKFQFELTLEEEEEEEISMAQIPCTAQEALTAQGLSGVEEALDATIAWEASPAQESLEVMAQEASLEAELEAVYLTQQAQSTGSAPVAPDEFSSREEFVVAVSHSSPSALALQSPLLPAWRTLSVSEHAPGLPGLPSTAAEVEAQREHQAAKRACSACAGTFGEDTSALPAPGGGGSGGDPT

With `O=C(NC1CC1)c1nn2cc(F)cnc2c1-c1ccc2ocnc2c1` [Example 65, 3-(1,3-benzoxazol-5-yl)-N-cyclopropyl-6-fluoropyrazolo[1,5-a]pyrimidine-2-carboxamide], the IC50 was found to be 57 nM in assay [1], 59 nM in assay [2], 128 nM in assay [3] and 1160 nM in assay [4].

In the case of `O=C(c1nn2cc(F)cnc2c1-c1ccc(Cl)c(F)c1)N1CCC1` [Example 66, azetidin-1-yl[3-(4-chloro-3-fluorophenyl)-6-fluoropyrazolo[1,5-a]pyrimidin-2-yl]methanone], the IC50 in assay [1] turned out to be 2 nM; in assay [2], 7 nM; in assay [3] it was 9 nM; in assay [4], 79 nM.

Take `Cc1cc(C#N)c(F)cc1-c1c(C(=O)NC2CC2)nn2cc(F)cnc12` [Example 67, 3-(4-cyano-5-fluoro-2-methylphenyl)-N-cyclopropyl-6-fluoropyrazolo[1,5-a]pyrimidine-2-carboxamide]: the IC50 in assay [1] was determined as 3.46 nM; in assay [2], 16.4 nM; in assay [3], 26.8 nM; in assay [4], 111 nM.

Take `N#Cc1ccc(-c2c(C(=O)N3CCC3)nn3cc(F)cnc23)cc1F` [Example 68, 4-[2-(azetidin-1-ylcarbonyl)-6-fluoropyrazolo[1,5-a]pyrimidin-3-yl]-2-fluorobenzonitrile]: the IC50 in assay [1] turned out to be 3.31 nM; in assay [2] it was 16.8 nM; in assay [3], 32.9 nM; in assay [4] it was 261 nM.

As to `Cc1cc(C#N)c(F)cc1-c1c(C(=O)N2CCC2)nn2cccnc12` [Example 69, 4-[2-(azetidin-1-ylcarbonyl)pyrazolo[1,5-a]pyrimidin-3-yl]-2-fluoro-5-methylbenzonitrile], the IC50 in assay [1] was 3.37 nM; in assay [2], 17.3 nM; in assay [3], 36.1 nM; in assay [4], 92.9 nM.

As for `Cc1ccc(-c2c(C(=O)NC3CC3)nn3cccnc23)cc1F` [Example 70, N-cyclopropyl-3-(3-fluoro-4-methylphenyl)pyrazolo[1,5-a]pyrimidine-2-carboxamide], the IC50 in assay [1] amounted to 8.09 nM; in assay [2], 23.6 nM; in assay [3], 17 nM; in assay [4], 680 nM.

Consider `O=C(NC1CC1)c1nn2cccnc2c1-c1ccc(Cl)c(F)c1F` [Example 71, 3-(4-chloro-2,3-difluorophenyl)-N-cyclopropylpyrazolo[1,5-a]pyrimidine-2-carboxamide], for which the IC50 came to 10.2 nM in assay [1], 25.5 nM in assay [2], 11.1 nM in assay [3] and 797 nM in assay [4].

`O=C(NC1CC1)c1nn2cc(F)cnc2c1-c1cc(F)c(Cl)cc1F` [Example 72, 3-(4-chloro-2,5-difluorophenyl)-N-cyclopropyl-6-fluoropyrazolo[1,5-a]pyrimidine-2-carboxamide]: the IC50 is 0.77 nM in assay [1], 3.02 nM in assay [2], 5.18 nM in assay [3] and 43 nM in assay [4].

`CNC(=O)c1nn2cccnc2c1-c1ccc(Cl)cc1` [Example 73, 3-(4-chlorophenyl)-N-methylpyrazolo[1,5-a]pyrimidine-2-carboxamide]: the IC50 in assay [1] was 663 nM; in assay [2], 2070 nM; in assay [3] it was 435 nM; in assay [4] it was greater than 28500 nM.

As to `N#Cc1ccc(-c2c(C(=O)N3CCC3)nn3cccnc23)c(F)c1` [Example 75, 4-[2-(azetidin-1-ylcarbonyl)pyrazolo[1,5-a]pyrimidin-3-yl]-3-fluorobenzonitrile], the IC50 is 745 nM in assay [1], 377 nM in assay [2], 292 nM in assay [3] and greater than 28000 nM in assay [4].
